Results from the supplement of paper PMC9763283.

How the values were obtained:
Assay in all cases: area under growth-rate inhibition curve (AUC GRI) (dimensionless (GR-based AUC)); higher = less growth inhibition
Conditions in all cases: exposure time: 72 h; concentrations: 0.1, 1, 10 uM
BT474-LTR = system: BT474-LTR
Procedure, shortened: (§1)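 Six breast cancer cell line models (two triple-negative lines, plus parental and lapatinib + trastuzumab-resistant HER2+ lines) were plated at optimised log-phase densities and exposed to compound at 0.1, 1 or 10 µM for 72 h. Cells were fixed in 4% paraformaldehyde, and nuclei were stained with Hoechst 33342 or DAPI, imaged and counted. Area under the growth-rate inhibition curve came from 2 biological replicates, with growth corrected using Day 0 plates, untreated Day 3 plates and DMSO controls.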

SKBR3-P = system: SKBR3-P
Procedure, shortened: as §1

BT474-P = system: BT474-P
Procedure, shortened: as §1

SKBR3-LTR = system: SKBR3-LTR
Procedure, shortened: as §1

MDA-MB-231 = system: MDA-MB-231
Procedure, shortened: as §1

MDA-MB-468 = system: MDA-MB-468
Procedure, shortened: as §1

| SMILES | area under growth-rate inhibition curve (BT474-LTR) | area under growth-rate inhibition curve (SKBR3-P) | area under growth-rate inhibition curve (BT474-P) | area under growth-rate inhibition curve (SKBR3-LTR) | area under growth-rate inhibition curve (MDA-MB-231) | area under growth-rate inhibition curve (MDA-MB-468) |
| --- | --- | --- | --- | --- | --- | --- |
| Cc1ccccc1C(OCCN(C)C)c1ccccc1.O=C(O)CC(O)(CC(=O)O)C(=O)O (centres undefined) [Orphenadrine Citrate] | 1.06 | 0.995 | 1.03 | 1.07 | 1.02 | 1.04 |
| Nc1cc(-c2ccncc2)c[nH]c1=O [inamrinone] | 1.03 | 1.03 | 0.994 | 1.05 | 1.04 | 1.06 |
| CS(=O)(=O)c1ccc(C(=O)Nc2ccc(Cl)c(-c3ccccn3)c2)c(Cl)c1 [Vismodegib (GDC-0449)] | 1.08 | 1.03 | 1.03 | 1.03 | 1.03 | 0.997 |
| Cc1cccn2c(=O)c(-c3nnn[n-]3)cnc12.[K+] [Pemirolast Potassium] | 1.05 | 1.03 | 1.04 | 1.05 | 1.05 | 1.04 |
| CCCCCCCCc1ccc(CCC(N)(CO)CO)cc1.Cl [Fingolimod (FTY720) HCl] | 0.96 | 0.901 | 0.836 | 0.814 | 0.829 | 0.864 |
| C[N+]1(C)C2CC(OC(=O)C(CO)c3ccccc3)CC1C1OC12.[Br-] (centres undefined) [Methscopolamine] | 1.1 | 1.02 | 1.05 | 1.04 | 1.03 | 1.04 |
| O=C(O)C=CC(=O)O.O=C(c1ccc(OCCCc2c[nH]cn2)cc1)C1CC1 [Ciproxifan] | 1.06 | 1.01 | 0.976 | 1.07 | 1.02 | 0.991 |
| CC[C@@H](CO)NC(=O)[C@@H]1C=C2c3cccc4[nH]cc(c34)C[C@H]2N(C)C1.O=C(O)/C=C\C(=O)O [Methylergometrine maleate] | 1.05 | 1.04 | 1.01 | 1.05 | 1.03 | 1.06 |
| O=c1[nH]c2ccccc2n1C1CCN(CCCC(c2ccc(F)cc2)c2ccc(F)cc2)CC1 [Pimozide] | 0.991 | 0.972 | 0.974 | 1.01 | 0.991 | 0.959 |
| O=C(O)COCCN1CCN(C(c2ccccc2)c2ccc(Cl)cc2)CC1.[Cl-].[Cl-].[H+].[H+] (centres undefined) [Cetirizine DiHCl] | 1.07 | 0.997 | 1.03 | 1.03 | 1.02 | 1 |
| CC12CCC3=C4CCC(=O)C=C4CCC3C1CCC2(O)CC#N (centres undefined) [Dienogest] | 1.12 | 1.01 | 1.05 | 1.04 | 1.03 | 1.03 |
| COc1ccc(C(=O)N2CCCC2=O)cc1 [Aniracetam] | 1.08 | 1.01 | 1.04 | 1 | 1.01 | 1.02 |
| Cc1cccc(Cc2cnc[nH]2)c1C.Cl [Detomidine HCl] | 1.04 | 0.991 | 1.01 | 1.08 | 1.03 | 1.02 |
| CCc1cc2c(cc1CC)CC(NC[C@H](O)c1ccc(O)c3[nH]c(=O)ccc13)C2.O=C(O)/C=C\C(=O)O [Indacaterol Maleate] | 1 | 0.955 | 0.978 | 1.01 | 0.903 | 0.93 |
